The results in this text go back to ChEMBL document CHEMBL1201862, “PubChem BioAssay data set” (2004).

Structures are written as SMILES.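 Test compounds were applied to cells in 96-well plates for 48 hours at 5 doses. The concentration for 50% growth inhibition is given as GI50.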 Calls of active or inactive are those of the source. Cut-off read from the data, not from the text of the source: active = GI50 up to about 1.1 µM and inactive = higher.

Among the test systems are U-251; TK-10; HOP-92; CCRF-CEM; HCT-116; K562; MOLT-4; SW-620; SK-MEL-5; NCI/ADR-RES; OVCAR-3; HCC 2998; NCI-H23; SK-MEL-2; SNB-19; Malme-3M; UACC-257; NCI-H522; 786-0; ACHN.
Common to all, as to assay: DTP human tumour cell line panel, 48 h

Usually GI50 stands for the concentration at which growth is held to half of that of the control. As to `CCC(=O)OCN(C)c1nc(N(C)COC(=O)CC)nc(N(C)COC(=O)CC)n1`, the GI50 was > 100 µM (inactive) in the test with U-251; > 100 µM (inactive) with TK-10; 89.5 µM (inactive) in the test on HOP-92; 24.8 µM (inactive) with CCRF-CEM; 22.9 µM (inactive) in the test on HCT-116; 13.7 µM (inactive) in the test on K562. Also, the GI50 was 20.8 µM (inactive) in the test on MOLT-4; 26.9 µM (inactive) in the test with SW-620; 22.9 µM (inactive) with SK-MEL-5; 32.4 µM (inactive) in the test with NCI/ADR-RES; > 100 µM (inactive) in the test with OVCAR-3; 24.6 µM (inactive) with HCC 2998. Besides, the GI50 is > 100 µM (inactive) with NCI-H23; 18.2 µM (inactive) in the test with SK-MEL-2; > 100 µM (inactive) in the test with SNB-19; 32.6 µM (inactive) with Malme-3M; 38.9 µM (inactive) in the test with UACC-257.

In the case of `N#Cc1nnn(-c2ccc(Br)cc2)c1O`, the GI50 in the test with U-251, in the test on TK-10, in the test on NCI-H522, in the test with CCRF-CEM, in the test with HCT-116 and in the test with K562 was > 100 µM (inactive) in each case. The GI50 in the test with 786-0 was > 100 µM (inactive); in the test with MOLT-4, 10 µM (inactive); with SW-620, > 100 µM (inactive); in the test with NCI/ADR-RES it was > 100 µM (inactive); in the test with OVCAR-3, > 100 µM (inactive); with HCC 2998, > 100 µM (inactive). Moreover, the GI50 in the test on NCI-H23, with SK-MEL-2, with SNB-19, in the test on Malme-3M, with ACHN and in the test on UACC-257 was > 100 µM (inactive) throughout.

With `CC(C)CCCC(C)[C@H]1CCC(C2C[C@@H](O)[C@@H]3CC(O)[C@@H](O)C[C@]3(CO)C2=O)[C@]1(C)CCO` (stereo partly specified), the GI50 with U-251 was 19.4 µM (inactive); in the test on NCI-H522 it was 26.3 µM (inactive); in the test with CCRF-CEM it was 17 µM (inactive); in the test on HCT-116, 20 µM (inactive); in the test on K562 it was 24.4 µM (inactive); in the test on MOLT-4 it was 0.491 µM (active). The GI50 in the test with SW-620 is 23.4 µM (inactive); with SK-MEL-5, 14.2 µM (inactive); in the test with NCI/ADR-RES, 37.6 µM (inactive); in the test with OVCAR-3, 21.4 µM (inactive); in the test on HCC 2998 it was 21.2 µM (inactive); with NCI-H23 it was 36.1 µM (inactive). In addition, the GI50 was 22.3 µM (inactive) with SK-MEL-2, 28.4 µM (inactive) in the test with SNB-19, 23.1 µM (inactive) with Malme-3M and 20 µM (inactive) in the test with UACC-257.

With `O=C(C1C(c2ccccc2)N1C(c1ccccc1)c1ccccc1)C1C(c2ccccc2)N1C(c1ccccc1)c1ccccc1` (stereo unspecified), the GI50 in the test with U-251 was 25.1 µM (inactive); in the test with TK-10, 24.8 µM (inactive); in the test on NCI-H522, 5.71 µM (inactive); in the test on CCRF-CEM, 3.61 µM (inactive); in the test on HCT-116, 5.08 µM (inactive); with K562, 3.66 µM (inactive). The GI50 in the test with 786-0 is 21.3 µM (inactive); in the test on MOLT-4 it was 6.9 µM (inactive); in the test with SW-620 it was 5.14 µM (inactive); in the test with SK-MEL-5, 20.6 µM (inactive); with NCI/ADR-RES, 27.4 µM (inactive); with HCC 2998, 17.7 µM (inactive). The GI50 with SNB-19 was 97.5 µM (inactive); in the test on ACHN, > 10 µM (inactive); with UACC-257 it was 18.5 µM (inactive).

For `C[C@]12CC[C@H](O)CC1=CC[C@@H]1[C@@H]2CC[C@]2(C)C(=O)CC[C@@H]12` [PRASTERONE], the GI50 in the test on U-251, in the test on TK-10, with NCI-H522, in the test on HCT-116, in the test on 786-0 and in the test on MOLT-4 was > 100 µM (inactive) each time. In addition, the GI50 with SW-620, in the test on SK-MEL-5, with NCI/ADR-RES, in the test on OVCAR-3, with HCC 2998 and with NCI-H23 was > 100 µM (inactive) throughout. The GI50 in the test with SK-MEL-2, in the test with SNB-19, in the test on Malme-3M, with ACHN and in the test on UACC-257 was > 100 µM (inactive) in each case.

In the case of `COc1cc(C2C3=C(N=C4SC(C(C)=O)=C(C)N42)c2ccccc2CC3)cc(OC)c1OC` (stereo unspecified), the GI50 is > 100 µM (inactive) in the test with U-251; > 100 µM (inactive) in the test with HOP-92; > 100 µM (inactive) with CCRF-CEM; > 100 µM (inactive) in the test on HCT-116; 26.4 µM (inactive) in the test on K562; > 100 µM (inactive) in the test with 786-0. Besides, the GI50 in the test on MOLT-4 is > 10 µM (inactive); in the test on SW-620 it was > 100 µM (inactive); in the test with SK-MEL-5 it was 41.8 µM (inactive); in the test on NCI/ADR-RES it was 78.9 µM (inactive); in the test with OVCAR-3 it was > 100 µM (inactive); in the test with HCC 2998, > 100 µM (inactive). The GI50 in the test on NCI-H23, with SK-MEL-2, with SNB-19, with ACHN and in the test on UACC-257 was > 100 µM (inactive) each time.

For the molecule `CCOC(=O)c1csc(NC(=O)C(C)N2CCCCC2)n1` (stereo unspecified), the GI50 in the test with U-251, with TK-10, in the test with HOP-92, with CCRF-CEM, in the test on K562 and in the test with MOLT-4 was > 100 µM (inactive) throughout. The GI50 in the test with SW-620, in the test with SK-MEL-5, in the test on NCI/ADR-RES, with OVCAR-3, in the test with HCC 2998 and in the test on NCI-H23 was > 100 µM (inactive) throughout. The GI50 in the test on SK-MEL-2, with SNB-19, in the test with Malme-3M, with ACHN and with UACC-257 was > 100 µM (inactive) each time.

As to `CC1(C)C=CC(=O)C(O)C(C)(C)C1=O` (stereo unspecified), the GI50 is > 100 µM (inactive) in the test with U-251; 51.5 µM (inactive) in the test with TK-10; 19.9 µM (inactive) in the test with NCI-H522; 92.7 µM (inactive) with HOP-92; 0.13 µM (active) in the test with CCRF-CEM; 54.5 µM (inactive) in the test on HCT-116. The GI50 in the test with K562 was 30.3 µM (inactive); with 786-0, 96.2 µM (inactive); with MOLT-4, 7.05 µM (inactive); in the test on SW-620 it was 77.6 µM (inactive); in the test with SK-MEL-5 it was > 100 µM (inactive); in the test with NCI/ADR-RES, 72.4 µM (inactive). For the same molecule, the GI50 in the test on OVCAR-3 is 29.1 µM (inactive); with NCI-H23, 76.7 µM (inactive); in the test on SK-MEL-2, > 100 µM (inactive); with SNB-19, > 100 µM (inactive); with Malme-3M, 17.5 µM (inactive); in the test with ACHN, 98.4 µM (inactive). Moreover, the GI50 in the test with UACC-257 is 18.8 µM (inactive).

Turning to `C/C=C(\C)C(=O)OC1C2C(C)=CC(=O)C(O)C2(C)C2C3(O)OCC24C1OC(=O)C(OC(C)=O)C4C(C)C3O` (stereo unspecified), the GI50 in the test with U-251 is 0.0375 µM (active); in the test with HOP-92, 0.0388 µM (active); with CCRF-CEM, 0.0375 µM (active); with HCT-116 it was 0.0375 µM (active); in the test with K562 it was 0.0375 µM (active); with MOLT-4 it was 0.0375 µM (active). The GI50 in the test with SW-620 is 0.0594 µM (active); with NCI/ADR-RES, 1.05 µM (active); with OVCAR-3, 0.0375 µM (active); in the test on HCC 2998 it was 0.0415 µM (active); in the test with NCI-H23, 0.043 µM (active); in the test on SK-MEL-2, 0.0377 µM (active). In the test with UACC-257, the GI50 is 0.0375 µM (active).

For `COc1cc(C(=O)C2CC3(CCC2(O)c2cc(OC)c(OC)c(OC)c2)CC(=O)Nc2ccccc2C3=O)cc(OC)c1OC` (stereo unspecified), the GI50 in the test on U-251 was > 100 µM (inactive); in the test on TK-10, > 100 µM (inactive); in the test with HOP-92, 40.4 µM (inactive); in the test with CCRF-CEM, 37.3 µM (inactive); in the test on HCT-116, 67.1 µM (inactive); in the test on K562 it was 63.8 µM (inactive). Also, the GI50 in the test on MOLT-4 is 33 µM (inactive); in the test on SW-620, > 100 µM (inactive); in the test with SK-MEL-5, 21.3 µM (inactive); in the test on NCI/ADR-RES it was > 100 µM (inactive); in the test with OVCAR-3, > 100 µM (inactive); with HCC 2998, 50.7 µM (inactive). The GI50 is 88.9 µM (inactive) in the test with NCI-H23; 89.9 µM (inactive) in the test with SK-MEL-2; > 100 µM (inactive) in the test with SNB-19; > 100 µM (inactive) in the test on Malme-3M; > 100 µM (inactive) with UACC-257.

Take `CN1c2ccccc2SC2C(c3ccccc3)=NOC21` (stereo unspecified): the GI50 in the test with U-251 was 38.5 µM (inactive); with TK-10, 16.2 µM (inactive); with NCI-H522, 30.1 µM (inactive); in the test on CCRF-CEM it was > 100 µM (inactive); in the test on HCT-116, 23.7 µM (inactive); with K562, 22.6 µM (inactive). Besides, the GI50 is 35.4 µM (inactive) in the test on 786-0; 30.4 µM (inactive) in the test on MOLT-4; 25.1 µM (inactive) in the test on SW-620; > 10 µM (inactive) in the test with SK-MEL-5; 29.8 µM (inactive) in the test on NCI/ADR-RES; 56.1 µM (inactive) in the test on OVCAR-3. The GI50 is 23.3 µM (inactive) in the test with HCC 2998; 23.1 µM (inactive) with NCI-H23; 38.5 µM (inactive) with SK-MEL-2; 73.3 µM (inactive) in the test on SNB-19; 8.39 µM (inactive) with Malme-3M; 52.6 µM (inactive) in the test on ACHN. Besides, the GI50 in the test on UACC-257 was > 10 µM (inactive).

On to `O=C1Nc2ccccc2C(=O)/C1=C/NC(=S)NCCc1ccccc1`, for which the GI50 was > 100 µM (inactive) with U-251; 22.1 µM (inactive) in the test with TK-10; > 100 µM (inactive) in the test with HOP-92; > 100 µM (inactive) in the test with HCT-116; > 100 µM (inactive) in the test with 786-0; 4.03 µM (inactive) in the test on MOLT-4. In addition, the GI50 in the test on SW-620, in the test on SK-MEL-5, in the test on NCI/ADR-RES, in the test on OVCAR-3, with HCC 2998 and in the test with NCI-H23 was > 100 µM (inactive) throughout. Besides, the GI50 in the test on SK-MEL-2, in the test on SNB-19, with ACHN and in the test with UACC-257 was > 100 µM (inactive) each time.
